One assay has as its target human RIPK1 (Homo sapiens (Human), UniProt Q13546). In words: KINOMEscan binding assay, human RIPK1. The conditions noted are these: Table 21. An outline of the steps:
(§1)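 KINOMEscan competition binding using kinase-tagged T7 phage or HEK-293-produced DNA-tagged protein captured on ligand beads, with eluted protein quantified by qPCR. Compounds were run as an 11-point 3-fold series, top 30,000 nM, in 1% DMSO. Kd was fitted with the Hill equation, slope fixed at −1.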

In another assay the target is human RIPK3 (Homo sapiens (Human), UniProt Q9Y572). In words: KINOMEscan binding assay, human RIPK3. The conditions noted are these: Table 21. Summed up:
as §1

The target in a further assay is human MLKL (full length) (Homo sapiens (Human), UniProt Q8NB16). Nature of the assay: KINOMEscan binding assay, human MLKL (full length). The conditions noted are these: KINOMEscan, Table 21; read-out: Human MLKL (full-length) (KD). The protocol: Binding affinity of the test compounds for human MLKL (full length), mouse MLKL (full length), human RIPK1 and human RIPK3 was determined using the KINOMEscan™ technology developed by DiscoverX (USA; http://www.discoverx.com). The assay was conducted according to manufacturer instructions.
human MLKL (full length), sequence (Q8NB16 whole entry): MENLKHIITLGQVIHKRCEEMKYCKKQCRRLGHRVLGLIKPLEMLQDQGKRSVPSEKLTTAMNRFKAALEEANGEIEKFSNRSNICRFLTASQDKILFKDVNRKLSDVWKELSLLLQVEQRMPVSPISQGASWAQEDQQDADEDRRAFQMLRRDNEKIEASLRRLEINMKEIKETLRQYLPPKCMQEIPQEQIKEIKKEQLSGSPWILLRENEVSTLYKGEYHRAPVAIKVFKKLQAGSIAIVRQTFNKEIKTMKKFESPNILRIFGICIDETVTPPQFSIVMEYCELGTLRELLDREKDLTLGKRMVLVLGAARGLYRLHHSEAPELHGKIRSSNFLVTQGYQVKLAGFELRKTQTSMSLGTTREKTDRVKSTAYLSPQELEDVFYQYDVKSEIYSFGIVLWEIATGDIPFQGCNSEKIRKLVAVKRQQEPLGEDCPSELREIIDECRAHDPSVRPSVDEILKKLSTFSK
Kinase assays. For most assays, kinase-tagged T7 phage strains were grown in parallel in 24-well blocks in an E. coli host derived from the BL21 strain. E. coli were grown to log-phase and infected with T7 phage from a frozen stock (multiplicity of infection=0.4) and incubated with shaking at 32° C. until lysis (90-150 minutes). The lysates were centrifuged (6,000×g) and filtered (0.2 μm) to remove cell debris. The remaining kinases were produced in HEK-293 cells and subsequently tagged with DNA for qPCR detection. […] The liganded beads were blocked with excess biotin and washed with blocking buffer (SeaBlock (Pierce), 1% BSA, 0.05% Tween 20, 1 mM DTT) to remove unbound ligand and to reduce non-specific phage binding. […] All reactions were performed in polypropylene 384-well plates in a final volume of 20 μL. […] The kinase concentration in the eluates was measured by qPCR.
An 11-point 3-fold serial dilution of each test compound was prepared in 100% DMSO at 100× final test concentration and subsequently diluted to 1× in the assay (final DMSO concentration=1%). Most Kos were determined using a compound top concentration=30,000 nM.
KD for each test compound was calculated with a standard dose-response curve using the Hill equation (equation (1)): […]
The Hill Slope was set to −1.
Curves were fitted using a non-linear least square fit with the Levenberg-Marquardt algorithm.

These results are taken from patent US20250115598A1 (Anaxis Pharma Pty Ltd, priority 2021, published 2025).

human RIPK3, sequence (Q9Y572 whole entry): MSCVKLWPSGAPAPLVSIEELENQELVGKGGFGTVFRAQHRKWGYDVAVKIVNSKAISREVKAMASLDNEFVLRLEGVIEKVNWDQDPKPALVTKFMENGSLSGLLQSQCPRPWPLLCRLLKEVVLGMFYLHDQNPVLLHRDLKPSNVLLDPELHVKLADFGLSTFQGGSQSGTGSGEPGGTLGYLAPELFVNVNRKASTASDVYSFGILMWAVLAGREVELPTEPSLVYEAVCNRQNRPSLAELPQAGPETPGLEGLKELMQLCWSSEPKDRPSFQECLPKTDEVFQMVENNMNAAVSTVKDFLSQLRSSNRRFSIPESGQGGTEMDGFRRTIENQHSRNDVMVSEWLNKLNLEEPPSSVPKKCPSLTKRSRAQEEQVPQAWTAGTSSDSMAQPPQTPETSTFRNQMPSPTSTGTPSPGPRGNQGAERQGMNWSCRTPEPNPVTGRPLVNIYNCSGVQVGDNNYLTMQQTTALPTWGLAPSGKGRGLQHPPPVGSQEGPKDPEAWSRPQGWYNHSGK
human RIPK1, sequence (Q13546 whole entry): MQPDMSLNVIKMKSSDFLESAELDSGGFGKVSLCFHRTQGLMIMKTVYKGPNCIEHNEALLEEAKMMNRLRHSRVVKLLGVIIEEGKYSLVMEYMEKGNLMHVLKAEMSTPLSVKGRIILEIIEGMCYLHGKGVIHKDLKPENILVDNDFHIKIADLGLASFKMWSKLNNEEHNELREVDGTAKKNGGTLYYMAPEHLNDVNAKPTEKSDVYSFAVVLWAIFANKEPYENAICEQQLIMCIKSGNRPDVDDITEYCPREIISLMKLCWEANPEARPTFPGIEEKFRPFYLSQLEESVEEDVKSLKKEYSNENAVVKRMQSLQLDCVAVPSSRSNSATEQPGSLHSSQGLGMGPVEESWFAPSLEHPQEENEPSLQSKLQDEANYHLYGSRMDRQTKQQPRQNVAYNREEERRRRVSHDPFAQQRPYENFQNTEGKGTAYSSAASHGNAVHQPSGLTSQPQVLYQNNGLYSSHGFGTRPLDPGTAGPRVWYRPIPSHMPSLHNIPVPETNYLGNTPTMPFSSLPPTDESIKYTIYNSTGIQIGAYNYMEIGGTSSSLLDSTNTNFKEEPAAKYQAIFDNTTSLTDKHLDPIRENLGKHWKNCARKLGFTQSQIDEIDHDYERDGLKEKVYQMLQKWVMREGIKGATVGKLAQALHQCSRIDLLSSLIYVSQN

Turning to `C[C@H](Oc1cc(-c2nn(C)c3c(-c4cnn(C5(C#N)CC5)c4)cnc(N)c23)ccc1NS(=O)(=O)C(F)F)c1ccc(F)cc1` [Compound 96, N-(4-{4-amino-7-[1-(1-cyanocyclopropyl)-1H-pyrazol-4-yl]-1-methyl-1H-pyrazolo[4,3-c]pyridin-3-yl}-2-[(1S)-1-(4-fluorophenyl)ethoxy]phenyl)-1,1-difluoromethanesulfonamide], the Kd is over 10 µM at human RIPK1, over 10 µM on human RIPK3 and under 0.001 µM at human MLKL (full length).
As for `C[C@H](Oc1cc(-c2nn(C)c3c(-c4cnc(N5CCN(C)CC5)nc4)cnc(N)c23)ccc1NS(=O)(=O)C(F)F)c1ccc(F)cc1` [Compound 105, (S)-N-(4-(4-amino-1-methyl-7-(2-(4-methylpiperazin-1-yl)pyrimidin-5-yl)-1H-pyrazolo[4,3-c]pyridin-3-yl)-2-(1-(4-fluorophenyl)ethoxy)phenyl)-1,1-difluoromethanesulfonamide], the Kd at human RIPK1 was over 10 µM; on human RIPK3 it was over 10 µM; on human MLKL (full length), under 0.001 µM.
As for `Cn1nc(-c2ccc(NS(=O)(=O)C(F)F)c(OCC3CCCCC3)c2)c2c(N)ncc(-c3cnn(C4CCOCC4)c3)c21` [Compound 150, N-(4-(4-amino-1-methyl-7-(1-(tetrahydro-2H-pyran-4-yl)-1H-pyrazol-4-yl)-1H-pyrazolo[4,3-c]pyridin-3-yl)-2-(cyclohexyl-methoxy)phenyl)-1,1-difluoromethane-sulfonamide], the Kd on human RIPK1 was over 10 µM; at human RIPK3 it was over 10 µM; on human MLKL (full length), under 0.001 µM.
As for `C[C@H](Oc1cc(-c2nn(C)c3c(-c4cnn(C5CNC5)c4)cnc(N)c23)ccc1NS(=O)(=O)C(F)F)c1ccc(F)cc1` [Compound 94, (S)-N-(4-(4-amino-7-(1-(azetidin-3-yl)-1H-pyrazol-4-yl)-1-methyl-1H-pyrazolo[4,3-c]pyridin-3-yl)-2-(1-(4-fluorophenyl)ethoxy)phenyl)-1,1-difluoromethane-sulfonamide], the Kd at human RIPK1 was over 10 µM; on human RIPK3 it was over 10 µM; on human MLKL (full length) it was under 0.001 µM.
For the compound `C[C@H](Oc1cc(-c2nn(C)c3c(-c4cnn(C5COC5)c4)cnc(N)c23)ccc1NS(=O)(=O)C(F)F)c1ccc(F)cc1` [Compound 38, (S)-N-(4-(4-amino-1-methyl-7-(1-(oxetan-3-yl)-1H-pyrazol-4-yl)-1H-pyrazolo[4,3-c]pyridin-3-yl)-2-(1-(4-fluorophenyl)ethoxy)phenyl)-1,1-difluoromethanesulfonamide], the results for the Kd on human RIPK1, at human RIPK3 and at human MLKL (full length) were over 10 µM, over 10 µM and under 0.001 µM, respectively.
Consider `C[C@H](Oc1cc(-c2nn(C)c3c(C4=CCN(C)CC4)cnc(N)c23)ccc1NS(=O)(=O)C(F)F)c1ccc(F)cc1` [Compound 21, (S)-N-(4-(4-amino-1-methyl-7-(1-methyl-1,2,3,6-tetrahydropyridin-4-yl)-1H-pyrazolo[4,3-c]pyridin-3-yl)-2-(1-(4-fluorophenyl)ethoxy)phenyl)-1,1-difluoromethanesulfonamide], for which the results for the Kd at human RIPK1, at human RIPK3 and at human MLKL (full length) were over 10 µM, over 10 µM and under 0.001 µM, respectively.
Consider `C[C@H](Oc1cc(-c2nn(C)c3c(C#CC4CCOCC4)cnc(N)c23)ccc1NS(=O)(=O)C(F)F)c1ccc(F)cc1` [Compound 58, (S)-N-(4-(4-amino-1-methyl-7-((tetrahydro-2H-pyran-4-yl)ethynyl)-1H-pyrazolo[4,3-c]pyridin-3-yl)-2-(1-(4-fluorophenyl)ethoxy)phenyl)-1,1-difluoromethane-sulfonamide], for which the Kd was over 10 µM at human RIPK1, over 10 µM at human RIPK3 and under 0.001 µM at human MLKL (full length).
As to `Cc1ccc(-c2cnc(N)c3c(-c4ccc(NS(=O)(=O)C(F)F)c(O[C@@H](C)c5ccc(F)cc5)c4)nn(C)c23)cn1` [Compound 26, (S)-N-(4-(4-amino-1-methyl-7-(6-methylpyridin-3-yl)-1H-pyrazolo[4,3-c]pyridin-3-yl)-2-(1-(4-fluorophenyl)ethoxy)phenyl)-1,1-difluoromethanesulfonamide], the figures for the Kd on human RIPK1, on human RIPK3 and at human MLKL (full length) were over 10 µM, over 10 µM and under 0.001 µM, respectively.
In the case of `C[C@H](Oc1cc(-c2nn(C)c3c(-c4cnn(C5(CN)CC5)c4)cnc(N)c23)ccc1NS(=O)(=O)C(F)F)c1ccc(F)cc1` [Compound 89, (S)—N-(4-(4-amino-7-(1-(1-(aminomethyl)cyclopropyl)-1H-pyrazol-4-yl)-1-methyl-1H-pyrazolo[4,3-c]pyridin-3-yl)-2-(1-(4-fluorophenyl)ethoxy)phenyl)-1,1-difluoromethanesulfonamide], the results for the Kd at human RIPK1, at human RIPK3 and on human MLKL (full length) were over 10 µM, over 10 µM and under 0.001 µM, respectively.
Regarding `C[C@@H](Oc1cc(-c2nn(C)c3c(-c4cnn(C5CCOCC5)c4)cnc(N)c23)ccc1NS(=O)(=O)C(F)F)c1ccc(F)cc1` [Compound 121, (R)-N-(4-(4-amino-1-methyl-7-(1-(tetrahydro-2H-pyran-4-yl)-1H-pyrazol-4-yl)-1H-pyrazolo[4,3-c]pyridin-3-yl)-2-(1-(4-fluorophenyl)ethoxy)phenyl)-1,1-difluoromethane-sulfonamide], the dissociation constant Kd at human RIPK1 is over 10 µM; at human RIPK3 it was over 10 µM; at human MLKL (full length) it was under 0.001 µM.
For the compound `CC(C)n1nc(-c2ccc(NS(=O)(=O)C(F)F)c(O[C@@H](C)c3ccc(F)cc3)c2)c2c(N)ncc(-c3ccncc3)c21` [Compound 50, (S)-N-(4-(4-amino-1-isopropyl-7-(pyridin-4-yl)-1H-pyrazolo[4,3-c]pyridin-3-yl)-2-(1-(4-fluorophenyl)ethoxy)phenyl)-1,1-difluoromethane-sulfonamide], the dissociation constant Kd at human RIPK1 was over 10 µM; at human RIPK3 it was over 10 µM; on human MLKL (full length) it was under 0.001 µM.
Turning to `C[C@H](Oc1cc(-c2nn(C)c3c(-c4cnn(C5CCN(C)C5)c4)cnc(N)c23)ccc1NS(=O)(=O)C(F)F)c1ccc(F)cc1` (stereo partly drawn) [Compound 93, N-(4-(4-amino-1-methyl-7-(1-(1-methylpyrrolidin-3-yl)-1H-pyrazol-4-yl)-1H-pyrazolo[4,3-c]pyridin-3-yl)-2-((S)-1-(4-fluorophenyl)ethoxy)phenyl)-1,1-difluoromethanesulfonamide], the dissociation constant Kd at human RIPK1 was over 10 µM; on human RIPK3, over 10 µM; at human MLKL (full length), under 0.001 µM.
With `C[C@H](Oc1cc(-c2nn(C)c3c(-c4cnn(C5CCOCC5)c4)cnc(N)c23)ccc1NS(=O)(=O)Cc1ccccc1)c1ccc(F)cc1` [Compound 125, (S)-N-(4-(4-amino-1-methyl-7-(1-(tetra-hydro-2H-pyran-4-yl)-1H-pyrazol-4-yl)-1H-pyrazolo[4,3-c]pyridin-3-yl)-2-(1-(4-fluoro-phenyl)eth-oxy)phenyl)-1-phenylmethane-sulfonamide], the Kd on human RIPK1 and at human RIPK3 was over 10 µM in each case.
As for `CCS(=O)(=O)Nc1ccc(-c2cnn3ccnc(N)c23)cc1OCc1ccc(F)cc1` [Compound 64, N-(4-(4-Aminopyrazolo[1,5-a]pyrazin-3-yl)-2-((4-fluorophenyl)methoxy)phenyl)ethane-1-sulfonamide], the Kd at human RIPK1 and on human RIPK3 was over 10 µM in each case.
`C[C@H](Oc1cc(-c2nn(C)c3c(-c4cnn(C5CCCC5)c4)cnc(N)c23)ccc1NS(=O)(=O)C(F)F)c1ccc(F)cc1` [Compound 30, (S)-N-(4-(4-amino-7-(1-cyclopentyl-1H-pyrazol-4-yl)-1-methyl-1H-pyrazolo[4,3-c]pyridin-3-yl)-2-(1-(4-fluorophenyl)ethoxy)phenyl)-1,1-difluoromethanesulfonamide]: the Kd on human RIPK1 was over 10 µM; on human RIPK3, 0.1 to 10 µM.
The corresponding values for `C[C@H](Oc1cc(-c2nn(C)c3c(-c4cnc(N(C)C)nc4)cnc(N)c23)ccc1NS(=O)(=O)C(F)F)c1ccc(F)cc1` [Compound 106, (S)-N-(4-(4-amino-7-(2-(dimethylamino)pyrimidin-5-yl)-1-methyl-1H-pyrazolo[4,3-c]pyridin-3-yl)-2-(1-(4-fluorophenyl)ethoxy)phenyl)-1,1-difluoromethanesulfonamide] are over 10 µM and over 10 µM.
Take `Nc1n[nH]c2ccnc(-c3ccc(NS(=O)(=O)CC(F)(F)F)c(OCc4ccc(F)cc4)c3)c12` [Compound 65, N-(4-(3-amino-1H-pyrazolo[4,3-c]pyridin-4-yl)-2-((4-fluorophenyl)methoxy)phenyl)-2,2,2-trifluoroethane-1-sulfonamide]: the dissociation constant (Kd) at human RIPK1 and at human RIPK3 was over 10 µM each time.
Take `C[C@H](Oc1cc(-c2cnn3ccnc(N)c23)ccc1NS(=O)(=O)C(F)F)c1ccc(F)cc1` [Compound 22, (S)—N-(4-(4-aminopyrazolo[1,5-a]pyrazin-3-yl)-2-(1-(4-fluorophenyl)ethoxy)phenyl)-1,1-difluoromethanesulfonamide]: the dissociation constant (Kd) on human RIPK1 and at human RIPK3 was over 10 µM throughout.

As usually defined, the Kd is the equilibrium constant for the complex coming apart.
